PubChem BioAssay AID256 (DTP/NCI, 2004)
Inconclusive results and toxic doses are left out.

Test system: CD2F1 mice, L1210 leukemia ip, survival T/C
Assay: NCI In Vivo Anticancer Drug Screen. Data for tumor model L1210 Leukemia (intraperitoneal) in CD2F1 (CDF1) mice
Settings: higher = longer survival
Procedure, shortened: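 Vehicle-treated tumor-bearing mice served as controls (C) for compound-treated mice (T). Reported figure is T divided by C.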

[1] = endpoint: mean survival time, dose: 200.0 mg/kg/injection, schedule: Q04DX003 (ip), vehicle: saline with Tween-80
[2] = endpoint: mean survival time, dose: 50.0 mg/kg/injection, schedule: Q01DX009 (ip), vehicle: saline with Tween-80
[3] = endpoint: mean survival time, dose: 25.0 mg/kg/injection, schedule: Q04DX003 (ip), vehicle: saline with Tween-80
[4] = endpoint: mean survival time, dose: 50.0 mg/kg/injection, schedule: Q04DX003 (ip), vehicle: saline with Tween-80
[5] = endpoint: mean survival time, dose: 100.0 mg/kg/injection, schedule: Q04DX003 (ip), vehicle: saline with Tween-80
[6] = endpoint: mean survival time, dose: 100.0 mg/kg/injection, schedule: Q01DX009 (ip), vehicle: saline with Tween-80

NC(Cc1cc([N+](=O)[O-])ccc1CN(CCCl)CCCl)C(=O)O (stereo not given)
T/C (endpoint: mean survival time, dose: 0.25 mg/kg/injection, schedule: Q04DX003 (ip), vehicle: Klucel (hydroxypropylcellulose) (HPC)): 109 % of control
T/C (endpoint: mean survival time, dose: 0.5 mg/kg/injection, schedule: Q04DX003 (ip), vehicle: Klucel (hydroxypropylcellulose) (HPC)): 111 % of control
T/C (endpoint: mean survival time, dose: 0.75 mg/kg/injection, schedule: Q01DX001 (ip), vehicle: Klucel (hydroxypropylcellulose) (HPC)): 103 % of control
T/C (endpoint: mean survival time, dose: 1.0 mg/kg/injection, schedule: Q04DX003 (ip), vehicle: Klucel (hydroxypropylcellulose) (HPC)): 115 % of control
T/C (endpoint: mean survival time, dose: 1.5 mg/kg/injection, schedule: Q01DX001 (ip), vehicle: Klucel (hydroxypropylcellulose) (HPC)): 114 % of control
T/C (endpoint: mean survival time, dose: 3.0 mg/kg/injection, schedule: Q01DX001 (ip), vehicle: Klucel (hydroxypropylcellulose) (HPC)): 123 % of control
T/C (endpoint: mean survival time, dose: 4.0 mg/kg/injection, schedule: Q01DX009 (ip), vehicle: Klucel (hydroxypropylcellulose) (HPC)): 158 % of control
T/C (endpoint: mean survival time, dose: 8.0 mg/kg/injection, schedule: Q01DX009 (ip), vehicle: Klucel (hydroxypropylcellulose) (HPC)): 123 % of control
T/C (endpoint: median survival time, dose: 0.75 mg/kg/injection, schedule: Q01DX001 (ip), vehicle: Klucel (hydroxypropylcellulose) (HPC)): 115 % of control
T/C (endpoint: median survival time, dose: 1.5 mg/kg/injection, schedule: Q01DX001 (ip), vehicle: Klucel (hydroxypropylcellulose) (HPC)): 111 % of control
T/C (endpoint: median survival time, dose: 1.88 mg/kg/injection, schedule: Q04DX003 (ip), vehicle: Klucel (hydroxypropylcellulose) (HPC)): 362 % of control
T/C (endpoint: median survival time, dose: 3.0 mg/kg/injection, schedule: Q01DX001 (ip), vehicle: Klucel (hydroxypropylcellulose) (HPC)): 119 % of control
T/C (endpoint: median survival time, dose: 3.12 mg/kg/injection, schedule: Q01DX001 (ip), vehicle: Klucel (hydroxypropylcellulose) (HPC)): 362 % of control
T/C (endpoint: median survival time, dose: 6.25 mg/kg/injection, schedule: Q01DX001 (ip), vehicle: Klucel (hydroxypropylcellulose) (HPC)): 114 % of control
T/C (endpoint: median survival time, dose: 12.5 mg/kg/injection, schedule: Q01DX001 (ip), vehicle: Klucel (hydroxypropylcellulose) (HPC)): 124 % of control
T/C (endpoint: median survival time, dose: 25.0 mg/kg/injection, schedule: Q01DX001 (ip), vehicle: Klucel (hydroxypropylcellulose) (HPC)): 121 % of control

CCOC(=O)C(C(=O)c1ccccc1)c1cc(NS(=O)(=O)c2ccccc2)ccc1O (stereo not given)
T/C (endpoint: mean survival time, dose: 132.0 mg/kg/injection, schedule: Q04DX003 (ip), vehicle: saline with Tween-80): 115 % of control
T/C [1]: 106 % of control
T/C (endpoint: mean survival time, dose: 300.0 mg/kg/injection, schedule: Q04DX003 (ip), vehicle: saline with Tween-80): 103 % of control

CC(=O)n1cc(F)c(=O)[nH]c1=O
T/C (endpoint: mean survival time, dose: 16.5 mg/kg/injection, schedule: Q01DX009 (ip), vehicle: saline): 172 % of control
T/C (endpoint: mean survival time, dose: 25.0 mg/kg/injection, schedule: Q01DX009 (ip), vehicle: saline with Tween-80): 169 % of control
T/C [2]: 105 % of control

O=C(CCCN1CCN2Cc3[nH]c4ccccc4c3CC2C1)c1ccc(F)cc1 (stereo not given)
T/C [3]: 101 % of control
T/C [4]: 107 % of control
T/C [5]: 103 % of control

OC1CCCC2CCC[N-]C12.OC1CCCC2CCC[N-]C12.[Mn+2] (stereo not given)
T/C (endpoint: mean survival time, dose: 25.0 mg/kg/injection, schedule: Q01DX009 (ip), vehicle: Klucel (hydroxypropylcellulose) (HPC)): 104 % of control
T/C (endpoint: mean survival time, dose: 50.0 mg/kg/injection, schedule: Q01DX009 (ip), vehicle: Klucel (hydroxypropylcellulose) (HPC)): 115 % of control
T/C (endpoint: mean survival time, dose: 100.0 mg/kg/injection, schedule: Q01DX009 (ip), vehicle: Klucel (hydroxypropylcellulose) (HPC)): 104 % of control

CCNCc1ccc(OC)cc1
T/C [3]: 106 % of control
T/C [4]: 104 % of control
T/C [5]: 93 % of control

C1OC1CO[C@@H]1CO[C@H]2[C@@H]1OC[C@H]2OCC1CO1 (stereo not given in full)
T/C (endpoint: mean survival time, dose: 12.5 mg/kg/injection, schedule: Q01DX009 (ip), vehicle: suspension in saline): 100 % of control

O=c1[nH]cc(Br)cc1[N+](=O)[O-]
T/C (endpoint: mean survival time, dose: 100.0 mg/kg/injection, schedule: Q04DX002 (ip), vehicle: saline with Tween-80): 101 % of control
T/C (endpoint: mean survival time, dose: 200.0 mg/kg/injection, schedule: Q04DX002 (ip), vehicle: saline with Tween-80): 112 % of control
T/C (endpoint: mean survival time, dose: 400.0 mg/kg/injection, schedule: Q04DX002 (ip), vehicle: saline with Tween-80): 108 % of control

CC(C)C1(C(=O)NNC(=O)CCCc2ccc(N(CCCl)CCCl)cc2)OC2(O)CCCCCN2C1=O (stereo not given)
T/C (endpoint: mean survival time, dose: 6.25 mg/kg/injection, schedule: Q04DX003 (ip), vehicle: DMSO): 101 % of control
T/C (endpoint: mean survival time, dose: 12.5 mg/kg/injection, schedule: Q04DX003 (ip), vehicle: DMSO): 95 % of control
T/C (endpoint: mean survival time, dose: 25.0 mg/kg/injection, schedule: Q04DX003 (ip), vehicle: DMSO): 114 % of control

CC(=O)Nc1ccc(/C=N\NC(=O)CNC(=O)Nc2ccc(F)cc2)cc1
T/C [2]: 96 % of control
T/C [6]: 96 % of control

CCCCC(C)(O)CC (stereo not given)
T/C [6]: 93 % of control
T/C [5]: 95 % of control
T/C (endpoint: mean survival time, dose: 200.0 mg/kg/injection, schedule: Q01DX009 (ip), vehicle: saline with Tween-80): 95 % of control
T/C [1]: 105 % of control
T/C (endpoint: mean survival time, dose: 400.0 mg/kg/injection, schedule: Q04DX003 (ip), vehicle: saline with Tween-80): 107 % of control

Cc1ccc(NCC(=O)O)c([N+](=O)[O-])c1
T/C [5]: 95 % of control
T/C [1]: 103 % of control

S=C=Nc1ccc(Cl)c2ccccc12
T/C (endpoint: mean survival time, dose: 12.5 mg/kg/injection, schedule: Q04DX002 (ip), vehicle: saline with Tween-80): 90 % of control
T/C (endpoint: mean survival time, dose: 25.0 mg/kg/injection, schedule: Q04DX002 (ip), vehicle: saline with Tween-80): 98 % of control
T/C (endpoint: mean survival time, dose: 50.0 mg/kg/injection, schedule: Q04DX002 (ip), vehicle: saline with Tween-80): 102 % of control
